Source: patent publication US20240325394A1, “SALT AND CRYSTAL FORM OF NITROGEN-CONTAINING HETEROCYCLIC DERIVATIVE, PREPARATION METHOD THEREFOR AND APPLICATION THEREOF” (SHANGHAI HANSOH BIOMEDICAL CO., LTD., priority 2020, published 2024)
Like-named read-outs stand apart in the source and are kept apart here. Blank lines part the entries; values can stand above or below the compound they belong to.

Columns and labels:
[1] = test system: NCI-H358 cells (KRAS G12C mutant); test: Inhibition of NCI-H358 cell proliferation (CellTiter-Glo, 72 h); assay type: cell-based, human
Protocol: (§1) When NCI-H358 or Mia PaCa-2 cells were cultured to the appropriate fusion level, the NCI-H358 or Mia PaCa-2 cells were collected, and the cells were adjusted to the appropriate cell concentration using a complete medium, and the cell suspension was spread in a 96-well plate, 90 μL per well, and placed in a 37° C., 5% CO2 incubator overnight; and compound solutions of different concentrations were prepared using DMSO and culture medium; and a solvent control was set, the compound solution was added to a 96-well plate, 10 μL per well, at 37° C. in a 5% CO2 incubator for 72 hours; CellTiter-Glo solution was added thereto and the mixture was mixed well by shaking, incubated for 10 min in the dark, and read by BioTek Synergy H1 microplate reader.
(§2) The luminescence signal values were used to calculate the inhibition rate, the concentration and the inhibition rate were fitted to a nonlinear regression curve using Graphpad Prism software, then the IC50 value was obtained.

[2] = test system: Mia PaCa-2 cells (KRAS G12C mutant); test: Inhibition of Mia PaCa-2 cell proliferation (CellTiter-Glo, 72 h); assay type: cell-based, human
Protocol: as §1, §2

human KRAS G12C protein = target: T1, human KRAS G12C protein (Homo sapiens, UniProt P01116, G12C); test: Thermal shift: melting temperature of KRAS G12C protein; assay type: binding; conditions: for Tm: KRAS G12C protein 5.37 μM with compound 10 μM, 1 hour; for ΔTm at 10 µM: Tm minus Tm of DMSO solvent control, compound 10 μM
T1 construct: purchased Beijing SinoBiological Co., Ltd. 12259-H07E2
Protocol: In this experiment, the thermal shift method was used to test the degree of change in the melting temperature (Tm) of the KRAS G12C protein before and after the binding of the compound, in order to characterize the ability of the compound to improve the stability of the KRAS G12C protein.
The specific experiment operation was as follows: • A solution containing […] (pH 7.5), 1 mM DTT, 5× SYPRO Orange and 150 mM NaCl was prepared as the experimental buffer, and a final concentration of 5.37 μM human KRAS G12C protein was added thereto. The reaction mixture was divided into 8 rows of PCR tubes, each 19.5 μL, and 0.5 μL of the test compound or DMSO were added respectively, so that the total reaction system was 20 μL, the final concentration of the compound was 10 μM, and 2.5% DMSO was set as the solvent control. After incubating at room temperature in the dark for 1 hour, the PCR tube was put into the PCR instrument, QuantStudio Software v1.3 was opened, and the melting temperature of KRAS G12C protein in different treatment groups was detected by melt curve function (heating from 25° C. to 95° C., 0.03° C./s).
The experimental data file of PCR instrument was imported into thermal shift software, and the melting temperature (Tm) of each treatment group was obtained, and the change value of melting temperature (ATm) was obtained by subtracting the Tm of DMSO solvent control group.

[3] = Plasma stability, human plasma; assay type: in vitro ADME; conditions: human
Protocol: (§3) Animal or human whole blood was collected, then the blood was put into a test tube containing anticoagulant, centrifuged at 3500 rpm for 10 min, and the upper layer of pale yellow plasma was collected. • 2) 10 μM of tested compound (m/M/V=C)
(§4) The compound was weighed, the stock solution was prepared with DMSO and the working solution was prepared with 100 mM phosphate buffer. • 3) 10 μM of positive control • (1) Propantheline (Propantheline Mr=449.4 Da)
(§5) • 1) 285 μL of plasma and 15 μL of 10 μM compound (tested compound) were added in turn in a 96-well plate, and incubated at 37° C. • 2) 40 μL was taken out at 0, 15, 30, 60, 90, 120 min, respectively, and 160 μL of acetonitrile termination solution containing internal standard was added. • 3) After centrifugation (3500 rpm, 10 min), 50 μL of supernatant was taken out, and then diluted with 50 μL DDH2O and injected to LC-MS/MS.
(§6) • instrument: Shimadzu LC-20 AD • chromatographic column: phenomenex Gemiu® C18 (50*4.6 mm, 5 μM particle size); • mobile phase: A: acetonitrile, B: 0.1% formic acid solution 0-8 min: 5% A→95% A, 2.0-2.1 min: 90% A→5% A; flow rate: 0.8 mL/min; running time: 5.0 min; injection volume: 5 μL.
(§7) • instrument: API4000 Liquid Chromatography-Mass Spectrometry, AB, USA; • the ion source was electrospray ionization source (ESI); • the temperature of dry gas (N2) was 500° C.; • electrospray voltage was 5500V; • the detection method was positive ion detection; • the scanning mode was selective response monitoring (MRM); • the scanning time was 0.1 s.

[4] = Plasma stability, rat plasma; assay type: in vitro ADME
Protocol: as §3, §4, §5, §6, §7

[5] = Plasma stability, mouse plasma; assay type: in vitro ADME
Protocol: as §3, §4, §5, §6, §7

[6] = Plasma stability, dog plasma; assay type: in vitro ADME
Protocol: as §3, §4, §5, §6, §7

[7] = Pharmacokinetics in MiaPaca 2 tumor-bearing mice (plasma, tumor tissue); assay type: in vivo; conditions: female, mouse, po, p.o. 6 mg/kg
Protocol: The pharmacokinetic behavior of the compound of the embodiment 13-1 and AMG-510 compound, administered orally at a dose of 6 mg/kg, in mice (plasma, tumor tissue and intestine) was studied using MiaPaca 2 tumor-bearing mice as test animals.
24 MiaPaca 2 tumor-bearing mice, females. 3 for each time point (0 h, 1 h, 2 h, 4 h, 6 h, 8 h, 16 h, 24 h). Shanghai xipuer-bikai Laboratory Animal Co., Ltd, Animal Production License No. (SCXK (Shanghai) 2018-0006.
Embodiment compound 13-1 and compound AMG-510 were weighed and dissolved in the solution, the mixture was shaken well, and ultrasound was performed for 15 minutes to obtain a uniform suspension with a concentration of 0.6 mg/mL.
MiaPaca 2 tumor-bearing mice were administered at a dose of 6 mg/kg in a volume of 10 mL/kg, respectively, based on body weight p.o. after fasting (animals were not administered at point 0 h).
Before and after administration, mice were sacrificed with CO2, 0.5 mL blood was collected from the heart and placed in EDTA-2K tube, centrifuged at 4° C. […] The duodenum, ileum and colon tissues were cut with scissors, the contents were removed and cleaned twice with PBS, after absorbing water with absorbent paper, they were weighed, placed in a 2 mL centrifuge tube and stored at −80° C.

Structure (SMILES): C=CC(=O)N1CCN(c2nc(=O)n(-c3c(SC)ccnc3C(C)C)c3nc(-c4c(O)cccc4F)c(F)cc23)[C@@H](C)C1 [Embodiment 1-1, P-4-((S)-4-acryloyl-2-methylpiperazin-1-yl)-6-fluoro-7-(2-fluoro-6-hydroxyphenyl)-1-(2-isopropyl-4-(methylthio)pyridin-3-yl)pyrido[2,3-d]pyrimidin-2(1H)-one]
IC50 [1]: 28 nM | IC50 [2]: 55 nM

Structure (SMILES): C=CC(=O)N1CCN(c2nc(=O)n(-c3c(C)ccnc3C(C)C)c3nc(-c4c(O)cccc4F)c(F)cc23)[C@@H](C)C1 [AMG 510, reference compound]
Residual rate (%) 0 min ([3]; 0 min, 0.5 μM): 100.00% | Residual rate (%) 15 min ([3]; 15 min, 0.5 μM): 93.77% | Residual rate (%) 30 min ([3]; 30 min, 0.5 μM): 85.72% | Residual rate (%) 60 min ([3]; 60 min, 0.5 μM): 82.51% | Residual rate (%) 120 min ([3]; 120 min, 0.5 μM): 64.44% | half-life at 0.5 μM ([3]; plasma): 199 min | Residual rate (%) 0 min ([4]; rat plasma, 37° C., 0 min): 100.00% | Residual rate (%) 15 min ([4]; rat plasma, 37° C., 15 min): 100.85% | Residual rate (%) 30 min ([4]; rat plasma, 37° C., 30 min): 93.03% | Residual rate (%) 60 min ([4]; rat plasma, 37° C., 60 min): 77.54% | Residual rate (%) 120 min ([4]; rat plasma, 37° C., 120 min): 56.77% | half-life at 0.5 μM ([4]; rat, plasma): 137 min | Residual rate (%) 0 min ([5]; mouse plasma, 37° C., 0 min): 100.00% | Residual rate (%) 15 min ([5]; mouse plasma, 37° C., 15 min): 97.50% | Residual rate (%) 30 min ([5]; mouse plasma, 37° C., 30 min): 82.58% | Residual rate (%) 60 min ([5]; mouse plasma, 37° C., 60 min): 81.82% | Residual rate (%) 120 min ([5]; mouse plasma, 37° C., 120 min): 63.23% | half-life at 0.5 μM ([5]; mouse, plasma): 185 min | Residual rate (%) 0 min ([6]; dog plasma, 37° C., 0 min): 100.00% | Residual rate (%) 15 min ([6]; dog plasma, 37° C., 15 min): 98.88% | Residual rate (%) 30 min ([6]; dog plasma, 37° C., 30 min): 101.14% | Residual rate (%) 60 min ([6]; dog plasma, 37° C., 60 min): 93.43% | Residual rate (%) 120 min ([6]; dog plasma, 37° C., 120 min): 91.92% | half-life at 0.5 μM ([6]; dog, plasma): 884 min | MRT ([7]; Plasma): 48 min | half-life ([7]; Plasma): 18 min | MRT ([7]; Tumor): 42 min | half-life ([7]; Tumor): 18 min | Kp ([7]; exposure in tumor to exposure in plasma, read-out: Ratio (T/P)): 0.42

Continued, values first:

IC50 ([1]; Homo sapiens, NCI-H358, 72 h): 14 nM | IC50 ([2]; Homo sapiens, MIA PaCa-2, 72 h): 41 nM | Tm (human KRAS G12C protein): 61.5 °C | ΔTm at 10 µM (human KRAS G12C protein): 10.9 °C
Structure (SMILES): C=CC(=O)N1CCN(c2nc(=O)n(-c3c(SC)ccnc3C(C)C)c3nc(-c4c(O)cccc4F)c(Cl)cc23)[C@@H](C)C1 [Embodiment 3, 4-((S)-4-Acryloyl-2-methylpiperazin-1-yl)-6-chloro-7-(2-fluoro-6-hydroxyphenyl)-1-(2-isopropyl-4-(methylthio)pyridin-3-yl)pyrido[2,3-d]pyrimidin-2(1H)-one]

IC50 ([1]; Homo sapiens, NCI-H358, 72 h): 48 nM | IC50 ([2]; Homo sapiens, MIA PaCa-2, 72 h): 47 nM | Tm (human KRAS G12C protein): 61.2 °C | ΔTm at 10 µM (human KRAS G12C protein): 11.7 °C
Structure (SMILES): C=CC(=O)N1CCN(c2nc(=O)n(-c3c(SC)ccnc3C(C)C)c3nc(-c4c(F)cccc4SC)c(F)cc23)[C@@H](C)C1 [Embodiment 4, 4-((S)-4-Acryloyl-2-methylpiperazin-1-yl)-6-fluoro-7-(2-fluoro-6-(methylthio)phenyl)-1-(2-isopropyl-4-(methylthio)pyridin-3-yl)pyrido[2,3-d]pyrimidin-2(1H)-one]

IC50 ([1]; Homo sapiens, NCI-H358, 72 h): 79 nM | IC50 ([2]; Homo sapiens, MIA PaCa-2, 72 h): 68 nM
Structure (SMILES): C=CC(=O)N1CCN(c2nc(=O)n(-c3c(SC)ccnc3C(C)C)c3nc(-c4c(F)cccc4F)c(Cl)cc23)[C@@H](C)C1 [Embodiment 12, (S)-4-(4-acryloyl-2-methylpiperazin-1-yl)-7-(2,6-difluorophenyl)-6-chloro-1-(2-isopropyl-4-(methylthio)pyridin-3-yl)pyrido[2,3-d]pyrimidin-2(1H)-one]
